Data: US11977074B2, “Affinity-based detection of ligand-encoded synthetic biomarkers” (Massachusetts Institute of Technology, priority 2013, dated 2024)
Blank lines part the entries; values can stand above or below the compound they belong to. Where no end group is shown, it is not given here.

Tests used:
thrombin [1] = molecular target: T1, thrombin (Homo sapiens, UniProt P00734); test: Fluorogenic NW assay with recombinant thrombin; type: biochemical; set-up: with recombinant thrombin (15 nM; Haematologic Technologies); purchased Haematologic Technologies; conditions: inhibitor 100 μM
MMP9 = molecular target: T2, MMP9 (Homo sapiens, UniProt P14780); test: Fluorogenic NW assay with recombinant MMP9; type: biochemical; conditions: inhibitor 100 μM
T2 construct: purchased R&D Systems
T2 sequence (P14780 94-707, species assumed): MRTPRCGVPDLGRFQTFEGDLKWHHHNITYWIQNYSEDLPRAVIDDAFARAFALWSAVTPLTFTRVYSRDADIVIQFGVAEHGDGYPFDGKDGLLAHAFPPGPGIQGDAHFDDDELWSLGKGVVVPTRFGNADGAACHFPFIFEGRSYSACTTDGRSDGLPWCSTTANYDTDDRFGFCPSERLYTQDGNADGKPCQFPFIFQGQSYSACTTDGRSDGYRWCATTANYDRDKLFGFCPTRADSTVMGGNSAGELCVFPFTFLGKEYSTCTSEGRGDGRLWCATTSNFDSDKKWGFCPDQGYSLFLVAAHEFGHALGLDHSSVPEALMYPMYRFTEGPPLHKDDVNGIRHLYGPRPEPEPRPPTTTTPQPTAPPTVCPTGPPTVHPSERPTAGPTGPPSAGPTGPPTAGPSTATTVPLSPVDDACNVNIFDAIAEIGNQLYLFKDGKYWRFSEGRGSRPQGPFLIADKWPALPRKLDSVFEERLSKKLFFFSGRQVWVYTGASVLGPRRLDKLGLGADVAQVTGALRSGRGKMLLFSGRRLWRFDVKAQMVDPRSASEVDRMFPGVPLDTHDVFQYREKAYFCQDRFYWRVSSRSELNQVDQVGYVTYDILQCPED
Procedure: Fluorescent reporter-bound thrombin- or MMP-sensitive NWs (substrates PLGLRSW, SEQ ID NO: 3, or PLGVRGK, SEQ ID NO: 4, respectively) were introduced to recombinant thrombin or MMP9 (respectively). Release of homoquenched fluorophores upon proteolysis was read as increased fluorescence by plate reader at 37° C. Inhibitors Argatroban or Marimastat were incubated with the protease-NW cocktail at 100 μM. To quantify reporter release by LFA, reporter-functionalized NWs were incubated with cognate proteases, passed through a 30 kDa MW cutoff filter, quantified by LFA, and analyzed by Mann-Whitney test.
(SpectroMax Gemini EM microplate reader). Argatroban (Sigma) or Marimastat (Tocris) were incubated with the NW-protease cocktail at 100 μM final concentration. To assay proteolytic reporter release by LFA, reporter-functionalized enzyme sensitive NWs were incubated with MMP9 or thrombin as above at 37° C. for four hours and passed through a 30 kDa MW cutoff centrifugal filter. The filtered reporters were diluted to within LFA dynamic range and assayed by LFA as described below. Reporter stability experiments were performed using reporter 3 (1 μM) mixed in 1% w/v BSA with recombinant thrombin or MMP9 (both 15 nM) as above to 100 μL final volume and were incubated at 37° C. for 1 h. […]

MMP = test: Urinary reporters in LS174T colorectal tumor model by ELISA and LFA; type: in vivo, mice; conditions: urine test, ELISA
Procedure: Collection and analysis of urinary peptides. […] Reporter concentration in unprocessed urine was assayed by above protocols from urine diluted 1:10^2L10^4 for ELISA or 1:4-5 for LFA. Data was analyzed using receiver-operator characteristic (ROC) curves (both) and Wilcoxon signed rank test (CRC) or Mann-Whitney test (thrombosis).
Immediately following infusion, mice were placed over 96-well plates enclosed by a cylindrical tube to collect urine for 30 m (thrombosis model) or 1 h (tumor model). […] Urine was stored at −80° C. directly following collection.

thrombin [2] = molecular target: T3, thrombin (Mus musculus, UniProt P19221); test: Urinary reporters in collagen/epinephrine thrombosis model by ELISA and LFA; type: in vivo, mice
T3 construct: from tissue; host or cells: blood and pulmonary thrombi of live Swiss Webster mice (thromboplastin or collagen/epinephrine induced)
Procedure: Collection and analysis of urinary peptides. […] Urine collection times were optimized from previous studies using these disease models^[30, 31] and are dependent on site of disease and rate of enzymatic substrate cleavage. Reporter concentration in unprocessed urine was assayed by above protocols from urine diluted 1:10^2L10^4 for ELISA or 1:4-5 for LFA. Data was analyzed using receiver-operator characteristic (ROC) curves (both) and Wilcoxon signed rank test (CRC) or Mann-Whitney test (thrombosis).
Immediately following infusion, mice were placed over 96-well plates enclosed by a cylindrical tube to collect urine for 30 m (thrombosis model) or 1 h (tumor model). Urine collection times were optimized from previous studies using these disease models^[30, 31] and are dependent on site of disease and rate of enzymatic substrate cleavage. Urine was stored at −80° C. directly following collection.
Unprocessed urine was diluted (1:100-1:10,000) in 1× PBS with 1% w/v BSA and reporters were quantified by ELISA (at least 2 replicates) using standards as described above. Urine was applied to lateral flow test strips in 5 μL volume, at 1:4 (thrombosis model) or 1:5 (CRC model) dilution. Lateral flow tests were performed in triplicate as described above and test strips were allowed to dry and were quantified by automated script as described above. ELISA and LFA data was analyzed using a Wilcoxon signed rank test (CRC) and a Mann-Whitney test (thrombosis).
Urine concentration is dependent on many host and environmental factors (e.g. diet, activity level, medical history, circadian rhythm); therefore, we sought to develop a normalization strategy for the test. It was hypothesized that co-administered free reporters would pass into the urine independent of disease state and could be used to normalize the level of reporters released by protease activity.

thrombin [3] = molecular target: T1, thrombin; type: biochemical; set-up: with recombinant thrombin (15 nM; Haematologic Technologies); purchased Haematologic Technologies; conditions: R3 in tandem with thrombin-sensitive substrate on NWs; vs samples not exposed to thrombin
Description: Following in vitro substrate cleavage by thrombin, the peptide fragments were collected by size-exclusion filtration.

thrombin [4] = molecular target: T1, thrombin; test: Fluorogenic NW assay with purified thrombin; type: biochemical; set-up: mixed with human thrombin (2 μM); purchased Haematologic Technologies; conditions: bivalirudin 5 mg/mL, pre-incubated two minutes
Procedure: In vitro protease assays: NWs (200 nM by peptide) were mixed with human thrombin (2 μM), FVIIa (10 nM), FIXa (90 nM), FXa (160 nM), FXIa (31 nM), and activated protein C (60 nM, Haematologic Technologies) in a 384-well plate at 37° C. in activity buffers according to the manufacturer's instructions and monitored with a microplate reader (SpectroMax Gemini EM). […] For thrombin inhibition experiments, bivalirudin (Anaspec) was added to a final concentration of 5 mg/mL and pre-incubated for two minutes prior to addition of NWs.
To test substrate specificity, fluorophore-labeled derivatives were conjugated onto NWs at a valency sufficient to produce homoquenched substrates (˜40 peptides per NW) and then incubated the NWs with purified thrombin or a panel of blood clotting proteases (FXa, APC, FIXa, FVIIa, FXIa), each present at its maximal physiological concentration during thrombosis (FIG. 1B).

Swiss Webster mice = test: Thromboplastin-induced thrombosis, VT750-fibrin(ogen) deposition in organs; type: in vivo; conditions: bivalirudin 10 mg/kg i.v. five minutes prior to thromboplastin
Procedure: Characterization of thromboplastin-induced thrombosis: Each vial of thromboplastin containing 3-4 mg (from rabbit brain, Sigma) was dissolved in 2 mL of PBS. To quantify fibrin deposition, bovine fibrinogen (Sigma) was reacted with 3-fold molar excess of VT750 for 1 hr at RT, and purified by centrifugal size filtration (size cutoff, Millipore). Swiss Webster mice (Taconic) were lightly anesthetized with isofluorane and administered mixtures of VT750-fibrinogen (1 nmol by VT750) with thromboplastin (n=3 mice per dose) via tail vein injections. After 30 minutes, mice were euthanized by CO2 asphyxiation and organs were scanned on the LI-COR Odyssey Infrared Imaging System. Fibrin(ogen) fluorescence in each organ was quantified using ImageJ software (NIH). To test thrombin inhibition, mice were intravenously administered bivalirudin (10 mg/kg) five minutes prior to co-injection of thromboplastin. […]
We next investigated the ability of the synthetic biomarkers to detect thrombosis in living mice induced via intravenous (i.v.) administration of thromboplastin. […] To quantify PE formation, mice were co-injected with thromboplastin and the clot precursor fibrinogen (labeled with the near-infrared fluorophore VT750) so that the formation of fibrin clots by thrombin-mediated proteolysis of fibrinogen could be quantified by fluorescence analysis of whole organs (FIG. 3A). […]

thrombin [5] = molecular target: T3, thrombin; test: Urinary monitoring of thromboplastin-induced thrombosis by ELISA; type: in vivo, mice; conditions: bivalirudin 10 mg/kg; thromboplastin 2 μl per g b.w.
Procedure: ELISA detection of bifunctionalized reporters: 96-well plates (Thermo Scientific) were incubated with either 0.8 μg/mL of anti-Flsc (GeneTex, GTX19224) or 0.4 μg/mL of anti-Alex Fluor 488 (Invitrogen, A11094) diluted in PBS overnight at 4° C. Plates were blocked with 1% w/v bovine serum albumin (Sigma) in PBS for 1 hr before 100 μL of samples were added. Reporters captured on the plate were then detected by adding 100 μL of 0.2 μg/mL neutravidin-HRP (Pierce), developed with 50 μL TMB solution (Thermo Scientific) for 5-15 minutes and quenched with 50 μL of HCl before the absorbance of the wells was determined by microplate analysis (SpectraMax Plus, Molecular Devices) at 450 nm. Plates were washed 3× with PBST between each steps and incubation occurred at RT unless otherwise stated.
Urinary monitoring of thrombosis. Experiments were conducted in a paired setup. […] Urine samples were stored at −80° C. until ELISA analysis.
The concentration of analytes in the urine is mainly dependent on the hydration state of the host (ranging from 50-1200 mOsm/kg H2O in humans)^[20] and is affected by many external factors (e.g. circadian rhythm, diet, activity, and others). […]

- fluorescence of thrombin-sensitive NWs with thrombin in presence of inhibitor (thrombin [1]): No increase in fluorescence
Compound: CC1CNc2c(cccc2S(=O)(=O)N[C@@H](CCCNC(=N)N)C(=O)N2CC[C@@H](C)C[C@@H]2C(=O)O)C1 (stereo partly shown) [Argatroban]

- activity of MMP9 on MMP-sensitive NWs in presence of inhibitor (MMP9): no activity
Compound: CNC(=O)[C@@H](NC(=O)[C@H](CC(C)C)[C@H](O)C(=O)NO)C(C)(C)C [Marimastat]

Compound: MMP-sensitive NWs: PEG-coated iron oxide nanoworms with MMP9-cleavable substrate PLGVRGK and fluorescein, VT750 or R2 reporter (also: on PEG-coated iron oxide nanoworms, fluorescein, VT750 or R2 reporter)
- ROC a.u.c, discrimination of CRC (MMP): 0.90

Compound: TMR-GluFib-Biotin [Reporter R3]
- urinary level of reporter normalized against R4 in mice harboring thrombi (thrombin [2]; ELISA): significantly increased
- urinary level of reporter of thrombin activity in mice harboring thrombi (thrombin [2]; ELISA, quantified independently): significantly increased
- ratio of R3/R4 in diseased urine vs healthy controls (thrombin [2]; multiplexed paper strip (LFA)): statistically significant increase
- detection of cleaved reporter from filtrate by LFA after thrombin cleavage (thrombin [3]): readily detected

Compound: bivalirudin
- proteolysis of NWs by thrombin in the presence of inhibitor (thrombin [4]): negligible proteolysis
- formation of PEs in pretreated animals (Swiss Webster mice): readily prevented
- urinary reporter levels in mice treated with inhibitor prior to thrombotic challenge (thrombin [5]): abrogated
